This is an account of results in patent US10428017B2, “Modulators of the cystic fibrosis transmembrane conductance regulator protein and methods of use” (AbbVie S.à.r.l., priority 2017, dated 2019).

The target of this assay is T1, F508delCFTR (Homo sapiens, UniProt P13569, DEL508-508).
T1 construct: expressed in transfected cells; host or cells: CFBE4lo-F508delCFTR-HRP cells (human lung derived epithelial cell line, doxycycline-inducible)
As to the kind of experiment: Cell Surface Expression-Horse Radish Peroxidase (CSE-HRP) Assay. It is filed as cell-based. To be noted: for EC50: CFBE4lo-F508delCFTR-HRP cells, 18-24 hours at 33° C.; for Emax / Maximum % activity (with co-corrector): maximum at any tested concentration (up to 20 μM), normalized to on-plate positive control (2 μM co-corrector); for Maximum % activity (with co-corrector): with co-corrector 2 μM. How it is done:
Cell Surface Expression-Horse Radish Peroxidase (CSE-HRP) Assay
A cellular assay for measuring the F508delCFTR cell surface expression after correction with test compounds either without or with a co-corrector (2 μM of 3-[(2R,4R)-4-({[1-(2,2-difluoro-1,3-benzodioxol-5-yl)cyclopropyl]carbonyl}amino)-7-methoxy-3,4-dihydro-2H-chromen-2-yl]benzoic acid), was developed in human lung derived epithelial cell line (CFBE4lo−) (Veit G et al, (2012) Mol Biol Cell. 23(21): 4188-4202). The development was achieved by expressing the F508delCFTR mutation along with a horseradish peroxidase (HRP) in the fourth exofacial loop, and then measuring the HRP activity using luminescence readout from these cells, CFBE4lo-F508delCFTR-HRP, that were incubated overnight with the test corrector compounds, either without or with the co-corrector. For this primary assay, the CFBE4lo-F508delCFTR-HRP cells were plated in 384-well plates (Greiner Bio-one; Cat 781080) at 4,000 cells/well along with 0.5 μg/mL doxycycline to induce the F508delCFTR-HRP expression and further incubated at 37° C., 5% CO2 for 72 hours. The test compounds were then added either without or with a co-corrector at the required concentrations and further incubated for 18-24 hours at 33° C. The highest concentration tested was 20 μM with an 8-point concentration response curve using a 3-fold dilution in both the test compound without or with the co-corrector. Three replicate plates were run to determine one EC50. All plates contained negative controls (dimethyl sulfoxide, DMSO) and positive control (2 μM of 3-[(2R,4R)-4-({[1-(2,2-difluoro-1,3-benzodioxol-5-yl)cyclopropyl]carbonyl}amino)-7-methoxy-3,4-dihydro-2H-chromen-2-yl]benzoic acid) as well as on-plate concentration response of the positive control. Post incubation, the plates were washed 5× times with Dulbecco's phosphate buffered saline (DPBS), followed by the addition of the HRP substrate, luminol (50 μL), and measuring the HRP activity using luminescence readout on EnVision® Multilabel Plate Reader (Perkin Elmer; product number 2104-0010). The raw counts from the experiment were analyzed using Accelrys® Assay Explorer v3.3.
Z′ greater than 0.5 was used as passing quality control criteria for the plates.
The Z′ is defined as: 1−[3*SDPositive Control+3*SDNegative Control/Absolute(Meanpostivie Control−MeanNegative Control)] wherein “SD” is standard deviation.
The % activity measured at each of the 8 test concentrations of the test compound added either without or with a co-corrector (2 μM of 3-[(2R,4R)-4-({[1-(2,2-difluoro-1,3-benzodioxol-5-yl)cyclopropyl]carbonyl}amino)-7-methoxy-3,4-dihydro-2H-chromen-2-yl]benzoic acid) was normalized to the on-plate positive control using the following formulae: % activity(Test compound without co-corrector)=[(test compound without co-corrector response−DMSO response)/(positive control response−DMSO response)]*100 % activity(Test compound with co-corrector)=[(test compound with co-corrector response−DMSO response)/(positive control response−DMSO response)]*100
The maximum % activity achieved for the test compound either without or with a co-corrector at any tested concentration is presented in Table 1 along with the respective EC50's calculated using the following general sigmoidal curve with variable Hill slope equation (described as Model 42 in the Accelrys® Assay Explorer v3.3 software): y=(a−d)/(1+(x/c)^b)+d
General sigmoidal curve with concentration, response, top, bottom, EC50 and Hill slope. This model describes a sigmoidal curve with an adjustable baseline, a. The equation can be used to fit curves where response is either increasing or decreasing with respect to the independent variable, “x”.
“x” is a concentration of drug under test.
“a” is the maximum response, and “d” is the minimum response
“c” is the inflection point (EC50) for the curve. That is, “y” is halfway between the lower and upper asymptotes when x=c.
“b” is the slope-factor or Hill coefficient. […]

Where [1] appears, read: test compound without co-corrector, HRP luminescence readout, read-out: EC50 (without co-corrector).
[2] abbreviates: test compound without co-corrector.
Where [3] appears, read: with co-corrector 2 μM 3-[(2R,4R)-4-({[1-(2,2-difluoro-1,3-benzodioxol-5-yl)cyclopropyl]carbonyl}amino)-7-methoxy-3,4-dihydro-2H-chromen-2-yl]benzoic acid, read-out: EC50 (with co-corrector).

Read-outs that look alike come from different tables or passages of the source. A value given as a limit tells only on which side of the number the result lay.

T1 sequence (P13569 with tags, fused parts or gaps DEL508-508): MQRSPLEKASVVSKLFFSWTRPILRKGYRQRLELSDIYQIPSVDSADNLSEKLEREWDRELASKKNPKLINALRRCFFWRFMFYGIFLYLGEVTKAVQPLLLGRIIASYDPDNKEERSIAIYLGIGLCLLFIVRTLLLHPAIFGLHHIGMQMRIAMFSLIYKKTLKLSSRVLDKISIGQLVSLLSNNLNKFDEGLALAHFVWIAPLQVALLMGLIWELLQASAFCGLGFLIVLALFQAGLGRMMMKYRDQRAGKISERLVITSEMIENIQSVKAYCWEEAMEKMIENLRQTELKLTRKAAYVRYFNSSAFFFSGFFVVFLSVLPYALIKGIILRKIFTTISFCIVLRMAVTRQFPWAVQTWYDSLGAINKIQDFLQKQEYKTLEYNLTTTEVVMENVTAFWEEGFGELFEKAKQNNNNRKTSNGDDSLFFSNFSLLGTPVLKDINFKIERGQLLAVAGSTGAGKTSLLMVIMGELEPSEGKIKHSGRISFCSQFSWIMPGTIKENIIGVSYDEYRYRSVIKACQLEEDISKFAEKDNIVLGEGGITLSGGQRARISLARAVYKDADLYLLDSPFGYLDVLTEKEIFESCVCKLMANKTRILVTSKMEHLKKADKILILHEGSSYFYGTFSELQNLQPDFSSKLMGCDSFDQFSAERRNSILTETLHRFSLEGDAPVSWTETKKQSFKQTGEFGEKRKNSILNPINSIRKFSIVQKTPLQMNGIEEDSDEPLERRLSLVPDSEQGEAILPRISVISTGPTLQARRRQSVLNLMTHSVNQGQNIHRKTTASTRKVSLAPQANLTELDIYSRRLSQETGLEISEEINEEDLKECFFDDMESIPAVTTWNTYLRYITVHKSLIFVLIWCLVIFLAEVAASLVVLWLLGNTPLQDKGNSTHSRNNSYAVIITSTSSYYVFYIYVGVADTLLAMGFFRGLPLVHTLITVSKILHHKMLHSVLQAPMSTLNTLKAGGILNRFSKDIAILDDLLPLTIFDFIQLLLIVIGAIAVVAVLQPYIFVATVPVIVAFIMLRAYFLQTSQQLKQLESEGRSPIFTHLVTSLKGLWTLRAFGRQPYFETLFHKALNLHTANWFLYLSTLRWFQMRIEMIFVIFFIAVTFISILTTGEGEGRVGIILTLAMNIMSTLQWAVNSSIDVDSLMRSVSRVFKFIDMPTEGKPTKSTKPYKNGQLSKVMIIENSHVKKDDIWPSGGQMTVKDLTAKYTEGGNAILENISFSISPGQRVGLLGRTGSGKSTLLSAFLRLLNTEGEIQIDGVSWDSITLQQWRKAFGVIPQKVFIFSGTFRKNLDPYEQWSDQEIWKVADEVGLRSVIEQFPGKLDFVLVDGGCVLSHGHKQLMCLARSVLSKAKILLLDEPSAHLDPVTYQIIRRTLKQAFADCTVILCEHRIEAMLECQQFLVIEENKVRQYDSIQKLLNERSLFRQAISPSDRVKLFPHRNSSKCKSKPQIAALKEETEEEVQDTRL

Usually EC50 stands for the midpoint of the concentration-response curve. The term Emax denotes the maximal effect, on the per cent scale that the assay sets. As to `CCC1(C(=O)NS(=O)(=O)c2cccc3ccccc23)COc2ccccc21` (centres unmarked) [Example 23, 3-ethyl-N-(naphthalene-1-sulfonyl)-2,3-dihydro-1-benzofuran-3-carboxamide], the “Maximum % activity (with co-corrector)” value was “++ (≥150 and <350)”. For the same molecule, the EC50 under setting [1] is under 3 µM. For the same molecule, the Emax under setting [2] is under 50%. In addition, under setting [3], the concentration for a half-maximal effect (EC50) was under 3 µM.
With `O=C(NS(=O)(=O)c1cccc2ccccc12)C1CCOc2ccccc21` (centres unmarked) [Example 24, N-(naphthalene-1-sulfonyl)-3,4-dihydro-2H-1-benzopyran-4-carboxamide], the “Maximum % activity (with co-corrector)” value is listed as “+++ (≥350)”. In addition, under setting [1], the EC50 is 3 to 10 µM. Also, the Emax under setting [2] is 50 to 150%. Under setting [3], the half-maximal effective concentration (EC50) is 3 to 10 µM.
Take `COc1cccc2c1OCC2C(=O)NS(=O)(=O)c1cccc2ccccc12` (centres unmarked) [Example 25, 7-methoxy-N-(naphthalene-1-sulfonyl)-2,3-dihydro-1-benzofuran-3-carboxamide]: the “Maximum % activity (with co-corrector)” value was “++ (≥150 and <350)”. Besides, the half-maximal effective concentration (EC50) under setting [1] lay in the range of 3 to 10 µM. This molecule had an Emax under setting [2] of under 50%. Further, the concentration for a half-maximal effect (EC50) under setting [3] was in the range of 3 to 10 µM.
On to `CC(C)c1ccc(S(=O)(=O)NC(=O)C2(C)Cc3ccccc3O2)cc1` (centres unmarked) [Example 26, 2-methyl-N-[4-(propan-2-yl)benzene-1-sulfonyl]-2,3-dihydro-1-benzofuran-2-carboxamide], for which the “Maximum % activity (with co-corrector)” value is recorded as “+ (<150)”. Also, the half-maximal effective concentration (EC50) under setting [1] is at least 10 µM. For the same molecule, under setting [2], the Emax is under 50%. The concentration giving a half-maximal response (EC50) under setting [3] was at least 10 µM.
On to `Cc1ccccc1S(=O)(=O)NC(=O)C1COc2ccc(Cl)cc21` (centres unmarked) [Example 27, 5-chloro-N-(2-methylbenzene-1-sulfonyl)-2,3-dihydro-1-benzofuran-3-carboxamide], for which the “Maximum % activity (with co-corrector)” value was “+ (<150)”. Further, the EC50 under setting [1] was at least 10 µM. This molecule also showed a maximal effect (Emax) under setting [2] of under 50%. Further, the concentration giving a half-maximal response (EC50) under setting [3] was at least 10 µM.
As to `CCCS(=O)(=O)NC(=O)C1COc2ccc(Cl)cc21` (centres unmarked) [Example 28, 5-chloro-N-(propane-1-sulfonyl)-2,3-dihydro-1-benzofuran-3-carboxamide], the “Maximum % activity (with co-corrector)” value is on record as “+ (<150)”. Also, the EC50 under setting [1] is at least 10 µM. Under setting [2], this molecule displayed a maximum response (Emax) of under 50%. The 50% effective concentration (EC50) under setting [3] was at least 10 µM.
Take `Cc1ccccc1S(=O)(=O)NC(=O)C1COc2ccccc21` (centres unmarked) [Example 29, N-(2-methylbenzene-1-sulfonyl)-2,3-dihydro-1-benzofuran-3-carboxamide]: the “Maximum % activity (with co-corrector)” value is on record as “+ (<150)”. In addition, the EC50 under setting [1] was at least 10 µM. This molecule also had a maximal response (Emax) under setting [2] of under 50%. Under setting [3], the 50% effective concentration (EC50) is at least 10 µM.
With `Cc1ccccc1S(=O)(=O)NC(=O)C1CCOc2ccccc21` (centres unmarked) [Example 30, N-(2-methylbenzene-1-sulfonyl)-3,4-dihydro-2H-1-benzopyran-4-carboxamide], the “Maximum % activity (with co-corrector)” value is “+ (<150)”. Besides, under setting [1], the EC50 was at least 10 µM. This molecule also gave an Emax under setting [2] of under 50%. Also, under setting [3], the EC50 was 3 to 10 µM.
As for `O=C(NS(=O)(=O)c1cccc2ccccc12)C1(c2ccccc2)C[C@@H](CN2CCCC2)Oc2ccccc21` (stereo partly drawn) [Example 31, (2S)—N-(naphthalene-1-sulfonyl)-4-phenyl-2-[(pyrrolidin-1-yl)methyl]-3,4-dihydro-2H-1-benzopyran-4-carboxamide], the “Maximum % activity (with co-corrector)” value is “++ (≥150 and <350)”. Also, the EC50 under setting [1] is at least 10 µM. Further, the Emax under setting [2] was under 50%. The concentration for a half-maximal effect (EC50) under setting [3] lay in the range of 3 to 10 µM.
Take `C[C@@]1(C(=O)NS(=O)(=O)c2cccc3ccccc23)COc2cc3c(cc21)OC(F)(F)O3` [Example 32, (7S)-2,2-difluoro-7-methyl-N-(naphthalene-1-sulfonyl)-6,7-dihydro-2H-furo[2,3-f][1,3]benzodioxole-7-carboxamide]: the “Maximum % activity (with co-corrector)” value is “++ (≥150 and <350)”. Moreover, under setting [1], the EC50 was in the range of 3 to 10 µM. The Emax under setting [2] is under 50%. Moreover, under setting [3], the half-maximal effective concentration (EC50) is 3 to 10 µM.
Take `C[C@]1(C(=O)NS(=O)(=O)c2cccc3ccccc23)COc2cc3c(cc21)OC(F)(F)O3` [Example 33, (7R)-2,2-difluoro-7-methyl-N-(naphthalene-1-sulfonyl)-6,7-dihydro-2H-furo[2,3-f][1,3]benzodioxole-7-carboxamide]: the “Maximum % activity (with co-corrector)” value is “++ (≥150 and <350)”. In addition, the EC50 under setting [1] was at least 10 µM. This molecule displayed an Emax under setting [2] of under 50%. The half-maximal effective concentration (EC50) under setting [3] was at least 10 µM.
As to `O=C(NS(=O)(=O)c1cccc2ccccc12)C1COc2ccccc21` (centres unmarked) [Example 34, N-(naphthalene-1-sulfonyl)-2,3-dihydro-1-benzofuran-3-carboxamide], the “Maximum % activity (with co-corrector)” value was “+ (<150)”. For the same molecule, the EC50 under setting [1] was at least 10 µM. Under setting [2], this molecule returned an Emax of under 50%. Also, the EC50 under setting [3] is at least 10 µM.
Turning to `COc1ccc(Br)c2c1[C@@H](C(=O)NS(=O)(=O)c1cccc3ccccc13)CCO2` [Example 35, (4S)-8-bromo-5-methoxy-N-(naphthalene-1-sulfonyl)-3,4-dihydro-2H-1-benzopyran-4-carboxamide], the “Maximum % activity (with co-corrector)” value is “+++ (≥350)”. In addition, the EC50 under setting [1] lay in the range of 3 to 10 µM. This molecule came in with an Emax under setting [2] of 50 to 150%. Further, under setting [3], the EC50 was in the range of 3 to 10 µM.
`COc1ccc(Br)c2c1[C@H](C(=O)NS(=O)(=O)c1cccc3ccccc13)CCO2` [Example 36, (4R)-8-bromo-5-methoxy-N-(naphthalene-1-sulfonyl)-3,4-dihydro-2H-1-benzopyran-4-carboxamide]: the “Maximum % activity (with co-corrector)” value is recorded as “+++ (≥350)”. Moreover, the 50% effective concentration (EC50) under setting [1] is under 3 µM. Moreover, under setting [2], the maximal effect (Emax) is at least 150%. For the same molecule, the EC50 under setting [3] was under 3 µM.
Take `COc1ccc(Br)c2c1OCC2C(=O)NS(=O)(=O)c1cccc2ccccc12` (centres unmarked) [Example 37, 4-bromo-7-methoxy-N-(naphthalene-1-sulfonyl)-2,3-dihydro-1-benzofuran-3-carboxamide]: the “Maximum % activity (with co-corrector)” value was “+++ (≥350)”. The EC50 under setting [1] lay in the range of 3 to 10 µM. Under setting [2], this molecule came in with an Emax of at least 150%. For the same molecule, under setting [3], the EC50 is under 3 µM.
On the same counts, the results for `COc1cccc2c1C(C(=O)NS(=O)(=O)c1cccc3ccccc13)CC1(CCCCC1)O2` (centres unmarked) [Example 38, 5-methoxy-N-(naphthalene-1-sulfonyl)-3,4-dihydrospiro[1-benzopyran-2,1′-cyclohexane]-4-carboxamide] are “+++ (≥350)”, under 3 µM, at least 150% and under 3 µM.
As for `COc1ccc(Br)c2c1C(C(=O)NS(=O)(=O)c1cccc3ccccc13)CO2` (centres unmarked) [Example 39, 7-bromo-4-methoxy-N-(naphthalene-1-sulfonyl)-2,3-dihydro-1-benzofuran-3-carboxamide], the “Maximum % activity (with co-corrector)” value is on record as “+++ (≥350)”. For the same molecule, the EC50 under setting [1] was under 3 µM. For the same molecule, the Emax under setting [2] is at least 150%. Moreover, under setting [3], the concentration giving a half-maximal response (EC50) was under 3 µM.
